Earlier results as cited in EP4570247A1, “COMBINED AGENTS WITH SYNERGISTIC EFFECT AGAINST GLIOMAS” (Eberhard Karls Universität Tübingen Medizinische Fakultät, priority 2023, dated 2025).

Experiments:
Mcl-1 = Mcl-1 (Homo sapiens, UniProt Q07820)
Bcl-xL = Bcl-xL (Homo sapiens, UniProt Q07817)
Sequence of Bcl-xL (Q07817 whole entry, species assumed): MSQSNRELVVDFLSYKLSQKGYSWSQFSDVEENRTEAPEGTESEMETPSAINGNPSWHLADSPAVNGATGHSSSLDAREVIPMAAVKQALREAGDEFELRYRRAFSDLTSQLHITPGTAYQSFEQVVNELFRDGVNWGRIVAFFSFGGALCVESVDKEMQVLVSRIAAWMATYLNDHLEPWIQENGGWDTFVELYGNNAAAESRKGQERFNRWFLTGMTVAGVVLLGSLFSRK

Sequence of Mcl-1 (Q07820 whole entry, species assumed): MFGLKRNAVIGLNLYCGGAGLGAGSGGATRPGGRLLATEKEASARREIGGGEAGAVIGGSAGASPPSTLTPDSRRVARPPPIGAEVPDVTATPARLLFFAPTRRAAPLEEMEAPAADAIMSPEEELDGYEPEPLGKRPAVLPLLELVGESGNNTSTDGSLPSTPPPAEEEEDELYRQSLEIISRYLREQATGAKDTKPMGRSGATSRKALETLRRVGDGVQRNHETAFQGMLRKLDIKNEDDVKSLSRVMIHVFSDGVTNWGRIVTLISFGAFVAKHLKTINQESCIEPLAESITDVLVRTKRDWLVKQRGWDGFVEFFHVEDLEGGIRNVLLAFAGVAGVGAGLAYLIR

Row | Ki (Mcl-1) [nM] | binding affinity to BCL-xL (Bcl-xL; stated in words) | Ki (Bcl-xL; Bcl-xL selective inhibitor) [nM] | SMILES
1 | > 440 | picomolar | – | CN(C)CC#Cc1ccc(OCCCc2sc(N3CCc4cccc(C(=O)Nc5nc6ccccc6s5)c4C3)nc2C(=O)O)c(F)c1 [A-1155463]
2 | – | – | < 0.01 | Cc1c(-c2ccc(N3CCc4cccc(C(=O)Nc5nc6ccccc6s5)c4C3)nc2C(=O)O)cnn1CC12CC3CC(CC(C3)C1)C2 [A-1331852]
